Test results as given in ChEMBL document CHEMBL1134124, “Isoindolines: a new series of potent and selective endothelin-A receptor antagonists” (Bioorg Med Chem Lett, 2001).

Key:
Endothelin-1 receptor [1] = target: T1, Endothelin-1 receptor (Homo sapiens, UniProt P25101); experiment: In vitro inhibition of [125I]ET1 binding to CHO cells expressing recombinant human Endothelin A receptor; assay type: cell-based
T1 sequence (P25101 whole entry): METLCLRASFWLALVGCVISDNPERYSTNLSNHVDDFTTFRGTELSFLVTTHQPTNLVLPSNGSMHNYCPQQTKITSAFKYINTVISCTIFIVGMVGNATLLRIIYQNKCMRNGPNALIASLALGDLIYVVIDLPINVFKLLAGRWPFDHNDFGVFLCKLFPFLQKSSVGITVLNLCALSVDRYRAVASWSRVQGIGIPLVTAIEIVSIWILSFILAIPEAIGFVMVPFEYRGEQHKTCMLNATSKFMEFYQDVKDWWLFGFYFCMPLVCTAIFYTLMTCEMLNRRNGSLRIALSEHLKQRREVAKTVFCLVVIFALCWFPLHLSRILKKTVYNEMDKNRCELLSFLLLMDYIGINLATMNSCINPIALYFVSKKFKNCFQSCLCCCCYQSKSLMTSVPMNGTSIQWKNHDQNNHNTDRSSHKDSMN

[2] = target: T2, Endothelin receptor type B (Homo sapiens) (UniProt P24530); experiment: Inhibition of [125I]ET1 binding to CHO cells expressing human Endothelin B receptor at a concentration of 1 uM; assay type: cell-based
T2 sequence (whole entry): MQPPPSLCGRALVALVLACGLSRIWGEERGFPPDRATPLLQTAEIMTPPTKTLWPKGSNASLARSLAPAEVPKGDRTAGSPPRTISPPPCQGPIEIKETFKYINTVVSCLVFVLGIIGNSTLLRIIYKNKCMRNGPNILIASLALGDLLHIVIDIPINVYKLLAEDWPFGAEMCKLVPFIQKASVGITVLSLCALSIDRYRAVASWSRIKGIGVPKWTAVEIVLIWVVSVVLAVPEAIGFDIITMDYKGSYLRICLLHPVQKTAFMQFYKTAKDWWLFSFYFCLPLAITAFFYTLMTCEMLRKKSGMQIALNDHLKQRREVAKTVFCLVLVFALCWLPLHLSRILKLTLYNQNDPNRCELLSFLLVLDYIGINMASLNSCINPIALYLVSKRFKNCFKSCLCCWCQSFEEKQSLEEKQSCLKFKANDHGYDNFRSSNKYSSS

Rattus norvegicus = species on record: Rattus norvegicus; experiment: Tested for antagonising activity against ET-1 induced contraction of rat aorta; assay type: functional
Endothelin-1 receptor [3] = target: T1, Endothelin-1 receptor; experiment: Tested for in vitro inhibition of [125I]ET1 binding to CHO cells expressing human Endothelin A receptor; assay type: cell-based
[4] = target: T3, Endothelin receptor type B (Homo sapiens, UniProt P24530); experiment: Inhibition of [125I]-ET-1 binding to CHO cells expressing human Endothelin B receptor […]; assay type: cell-based
T3 sequence (P24530 whole entry): T2 sequence (whole entry)

IC50 (Endothelin-1 receptor [1]) [nM] | inhibition [2] [%] | Ki (Endothelin-1 receptor [3]) [nM] | Ki [4] [nM] | Structure (SMILES) | pKB (Rattus norvegicus)
96 | 9 |  |  | CCOc1ccc2c(c1)[C@@H](c1ccc(OC)cc1)N(CC(=O)O)[C@@H]2c1ccc2c(c1)OCO2 | 
22 | 37 |  |  | CCOc1ccc2c(c1)[C@@H](c1ccc(OC)cc1OCCCC(=O)O)N(CC(=O)O)[C@@H]2c1ccc2c(c1)OCO2 | 
110 | 31 |  |  | CCOc1ccc2c(c1)[C@H](c1cccc(OC)c1OCC(=O)O)N(CC(=O)O)[C@@H]2c1ccc2c(c1)OCO2 | 
> 10000 | 0 |  |  | CCCOc1ccc2c(c1)[C@H](c1ccc(OC)cc1)N(CC(=O)O)[C@@H]2c1ccc(OC)cc1OCC(=O)O | 
12 | 11 |  |  | CCOc1ccc2c(c1)[C@@H](c1ccc(OC)cc1OCC(=O)O)N(C(=O)C(=O)O)[C@@H]2c1ccc2c(c1)OCO2 | 7.7
68 | 1 |  |  | CCOc1ccc2c(c1)[C@@H](c1ccc(OC)cc1OCC(C)(C)C(=O)O)N(CC(=O)O)[C@@H]2c1ccc2c(c1)OCO2 | 
> 10000 | 6 |  |  | CCOc1ccc2c(c1)[C@@H](c1ccc(OC)cc1OCCO)N(CC(=O)O)[C@@H]2c1ccc2c(c1)OCO2 | 
 | 0 |  |  | CCOc1ccc2c(c1)[C@@H](c1ccc(OC)cc1OCc1nn[nH]n1)N(CC(=O)O)[C@@H]2c1ccc2c(c1)OCO2 | 
96 | 27 |  |  | CCOc1ccc2c(c1)[C@H](c1ccc(OC)c(OC)c1OCC(=O)O)N(CC(=O)O)[C@@H]2c1ccc2c(c1)OCO2 | 
> 10000 | 0 |  |  | CCOc1ccc2c(c1)[C@H](c1cc(OC)c(OC)c(OC)c1)N(c1nn[nH]n1)[C@@H]2c1ccc2c(c1)OCO2 | 
330 | 10 |  |  | CCOc1ccc2c(c1)[C@H](c1cc(OC)c(OC)c(OC)c1OCC(=O)O)N(CC(=O)O)[C@@H]2c1ccc2c(c1)OCO2 | 
 | 15 |  |  | CCOc1ccc2c(c1)[C@H](c1cc(OC)c(OC)c(OC)c1)N(CC(=O)O)[C@@H]2c1ccc2c(c1)OCO2 | 
3300 | 1 |  |  | COc1ccc([C@@H]2c3cc(OC)ccc3[C@@H](c3ccc4c(c3)OCO4)N2CC(=O)O)cc1 | 
 | 37 |  |  | CCOc1ccc2c(c1)[C@H](c1ccc(OC)cc1OCc1nn[nH]n1)N(CC(=O)O)[C@@H]2c1ccc2c(c1)OCO2 | 
 |  | 0.43 | 14.7 | CCCOc1ccc2c(c1)[C@H](c1ccc(OC)cc1OCC(=O)O)[C@@H](C(=O)O)[C@@H]2c1ccc2c(c1)OCO2 | 
5.4 | 15 |  |  | CCOc1ccc2c(c1)[C@@H](c1ccc(OC)cc1OCC(=O)O)N(CC(=O)O)[C@@H]2c1ccc2c(c1)OCO2 | 

IC50 (Endothelin-1 receptor [1]) [nM] | inhibition [2] [%] | Ki (Endothelin-1 receptor [3]) [nM] | Ki [4] [nM] | Structure (SMILES) | pKB (Rattus norvegicus)
> 10000 | 0 |  |  | CCCOc1ccc2c(c1)[C@@H](c1ccc(OC)cc1)N(CC(=O)O)[C@@H]2c1ccc(OC)cc1OCC(=O)O | 
66 | 17 |  |  | CCOc1ccc2c(c1)[C@@H](c1cc(OC)c(OC)c(OC)c1)N(CC(=O)O)[C@@H]2c1ccc2c(c1)OCO2 | 
> 1000 |  |  |  | CCOc1ccc2c(c1)[C@H](c1ccc(OC)cc1OCc1nnn[nH]1)N(CC(=O)O)[C@@H]2c1ccc2c(c1)OCO2 | 
14 | 34 |  |  | CCOc1ccc2c(c1)[C@H](c1ccc(OC)cc1OCC(C)(C)C(=O)O)N(CC(=O)O)[C@@H]2c1ccc2c(c1)OCO2 | 
85 | 12 |  |  | CCOc1ccc2c(c1)[C@@H](c1cccc(OC)c1OCC(=O)O)N(CC(=O)O)[C@@H]2c1ccc2c(c1)OCO2 | 
29 |  |  |  | CCOc1ccc2c(c1)[C@@H](c1ccc(OC)cc1OCc1nnn[nH]1)N(CC(=O)O)[C@@H]2c1ccc2c(c1)OCO2 | 
77 | 4 |  |  | CCOc1ccc2c(c1)[C@@H](c1ccc(OC)cc1O)N(CC(=O)O)[C@@H]2c1ccc2c(c1)OCO2 | 
6.1 | 2 |  |  | CCOc1ccc2c(c1)[C@@H](c1ccc(OC)c(OC)c1OCC(=O)O)N(CC(=O)O)[C@@H]2c1ccc2c(c1)OCO2 | 
95 | 23 |  |  | CCOc1ccc2c(c1)[C@H](c1ccc(OC)cc1)N(CC(=O)O)[C@@H]2c1ccc2c(c1)OCO2 | 
> 10000 | 0 |  |  | CCOc1ccc2c(c1)[C@H](c1ccc(OC)cc1OCC(=O)O)N(C(=O)C(=O)O)[C@@H]2c1ccc2c(c1)OCO2 | 
120 |  |  |  | CCCOc1ccc2c(c1)[C@@H](c1ccc(OC)cc1)N(CC(=O)O)[C@@H]2c1ccc2c(c1)OCO2 | 
4.1 | 52 |  |  | CCOc1ccc2c(c1)[C@H](c1ccc(OC)cc1OCC(=O)O)N(CC(=O)O)[C@@H]2c1ccc2c(c1)OCO2 | 
58 | 13 |  |  | CCOc1ccc2c(c1)[C@H](c1ccc(OC)cc1O)N(CC(=O)O)[C@@H]2c1ccc2c(c1)OCO2 | 
310 | 1 |  |  | CCOc1ccc2c(c1)[C@@H](c1cc(OC)c(OC)c(OC)c1OCC(=O)O)N(CC(=O)O)[C@@H]2c1ccc2c(c1)OCO2 | 
31 | 17 |  |  | CCOc1ccc2c(c1)[C@@H](c1ccc(OC)cc1OCC(=O)O)N(c1nn[nH]n1)[C@@H]2c1ccc2c(c1)OCO2 | 
